Key:
TTK = TTK (Homo sapiens (Human), UniProt P33981); assay: TTK enzyme assay (LanthaScreen Eu Kinase Binding); conditions: arithmetic mean of two or more experiments
Description: The inhibitory activity of compounds against TTK was determined in a LanthaScreen® Eu Kinase Binding assay run by ThermoFisher Scientific as part of their SelectScreen® Biochemical Kinase Profiling Service. The LanthaScreen® Eu Kinase Binding assay format uses binding of an Alexa Fluor® conjugate or “tracer” to a kinase, which is detected by addition of a Eu-labeled anti-tag antibody. […] The degree of FRET measured in the assay is used to determine the binding of a compound.
(§1) 10 point three-fold dilution compound concentration-response curves, with a top concentration of 10 μM were generated from 10 mM stocks of compound solubilised in DMSO. All assays were performed in white, low volume Greiner 384-well plates (cat. #784207, Greiner), in a total reaction volume of 16 μL and 1% (v/v) final DMSO concentration. […] Plates were then read using a fluorescence plate reader. IC50 values were calculated using XLfit software (IDBS Ltd, Surrey, UK), with the curve fit to model number 205 (sigmoidal dose-response model).

JAK1 = JAK1 (Homo sapiens (Human), UniProt P23458); assay: JAK1 enzyme assay (Z'-LYTE); assay type: biochemical; conditions: 75 μM ATP, arithmetic mean of two or more experiments
Chain of JAK1 (P23458 whole entry): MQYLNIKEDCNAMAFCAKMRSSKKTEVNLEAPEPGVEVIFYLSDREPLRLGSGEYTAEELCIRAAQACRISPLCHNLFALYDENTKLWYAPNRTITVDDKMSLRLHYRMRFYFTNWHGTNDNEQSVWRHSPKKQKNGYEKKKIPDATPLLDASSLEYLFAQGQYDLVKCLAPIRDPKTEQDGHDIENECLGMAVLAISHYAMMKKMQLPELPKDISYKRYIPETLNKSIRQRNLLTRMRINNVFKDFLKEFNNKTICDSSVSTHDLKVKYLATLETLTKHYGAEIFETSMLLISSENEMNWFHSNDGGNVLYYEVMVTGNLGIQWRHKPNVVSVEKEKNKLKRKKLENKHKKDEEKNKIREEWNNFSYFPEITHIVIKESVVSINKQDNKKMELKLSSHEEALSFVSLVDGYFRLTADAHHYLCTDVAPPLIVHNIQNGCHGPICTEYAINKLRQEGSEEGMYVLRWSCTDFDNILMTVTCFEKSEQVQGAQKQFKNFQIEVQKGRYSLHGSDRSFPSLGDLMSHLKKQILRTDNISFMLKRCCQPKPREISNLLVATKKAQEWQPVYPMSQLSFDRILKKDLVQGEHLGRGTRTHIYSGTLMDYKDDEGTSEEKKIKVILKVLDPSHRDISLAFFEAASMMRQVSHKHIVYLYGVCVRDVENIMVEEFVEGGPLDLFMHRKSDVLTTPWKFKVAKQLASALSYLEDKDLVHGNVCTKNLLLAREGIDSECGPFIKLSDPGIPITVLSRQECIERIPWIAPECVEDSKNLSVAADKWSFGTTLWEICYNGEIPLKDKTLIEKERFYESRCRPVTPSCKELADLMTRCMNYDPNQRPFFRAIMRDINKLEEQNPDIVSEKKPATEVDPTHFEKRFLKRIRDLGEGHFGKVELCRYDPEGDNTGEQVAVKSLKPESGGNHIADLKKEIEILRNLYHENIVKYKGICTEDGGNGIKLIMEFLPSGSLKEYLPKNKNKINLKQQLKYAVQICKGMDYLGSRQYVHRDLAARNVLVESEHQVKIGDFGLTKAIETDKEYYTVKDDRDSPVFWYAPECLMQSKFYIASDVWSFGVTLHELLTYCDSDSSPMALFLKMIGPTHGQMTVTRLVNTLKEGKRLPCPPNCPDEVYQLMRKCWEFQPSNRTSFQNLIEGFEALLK
Description: The inhibitory activity of compounds against AURKA, AURKB, JAK1, JAK2 and JAK3 was determined in Z′-LYTE® assays run by ThermoFisher Scientific as part of their SelectScreen® Biochemical Kinase Profiling Service. The Z′-LYTE® biochemical assay format employs a fluorescence-based, coupled-enzyme format and is based on the differential sensitivity of phosphorylated and non-phosphorylated peptides to proteolytic cleavage. The peptide substrate is labeled with two fluorophores—one at each end—that make up a FRET pair. In the primary reaction, the kinase transfers the gamma-phosphate of ATP to a single tyrosine, serine or threonine residue in a synthetic FRET-peptide. In the secondary reaction, a site-specific protease recognises and cleaves non-phosphorylated FRET-peptides. Phosphorylation of FRET-peptides suppresses cleavage by the Development Reagent. Cleavage disrupts FRET between the donor (i.e., coumarin) and acceptor (i.e., fluorescein) fluorophores on the FRET-peptide, whereas uncleaved, phosphorylated FRET-peptides maintain FRET. A ratiometric method, which calculates the ratio (the Emission Ratio) of donor emission to acceptor emission after excitation of the donor fluorophore at 400 nm, is used to quantitate reaction progress. Both cleaved and uncleaved FRET-peptides contribute to the fluorescence signals and therefore to the Emission Ratio. The extent of phosphorylation of the FRET-peptide can be calculated from the Emission Ratio.
as §1, with “black, non-binding,” for “white,”, “Corning” for “Greiner”, “#4514, Corning),” for “#784207, Greiner),”, “10” for “16”, “The kinase reaction was” for “Plates were”, “quenched by the addition of 5 μL of Development Reagent (ThermoFisher Scientific proprietary). […]” for “read using a fluorescence plate reader.”
JAK1: The 2×JAK/Tyr 06 (ThermoFisher Scientific proprietary) mixture was prepared in 50 mM HEPES pH 6.5, 0.01% BRIJ-35, 10 mM MgCl2, 1 mM EGTA, 0.02% NaN3. […] After the 1 hour Kinase Reaction incubation, 5 μL of a 1:128 dilution of Development Reagent was added.

[1] = biological target: Full length human DNAPK protein (Homo sapiens (Human), UniProt P78527); assay: DNAPK enzyme potency assay (DNA-PK enz), TR-FRET; assay type: biochemical; conditions: arithmetic mean of two or more experiments, 18 μM ATP
Excerpt: The following assays were used to measure the effects of the compounds described herein: a) DNAPK enzyme potency assay; b) DNAPK cellular potency assay. During the description of the assays, generally: • i. The following abbreviations have been used; DMSO=Dimethyl Sulphoxide; DTT=Dithiothreitol; EDTA=Ethylenediaminetetraacetic Acid, TR-FRET=Time Resolved Fluorescence Resonance Energy Transfer, ATP=Adenosine triphosphate, DTT=Dithiothreitol, DNA=Deoxyribonucleic acid, HEPES=(2-hydroxyethyl)-1-piperazineethanesulfonic acid • ii. […] Assay a): DNAPK Enzyme Potency Assay (DNA-PK Enz)
The inhibitory activity of compounds against DNAPK was determined by TR-FRET measuring a fluorescent labelled peptide substrate converting to a phosphorylated product. Fluorescently tagged peptide substrate were purchased from Thermo Fisher Scientific. 12 point half-log compound concentration-response curves, with a top concentration of 100 μM were generated from 10 mM stocks of compound solubilised in DMSO using an Echo 555 (Labcyte Inc., Sunnyvale, CA). All assays were preformed in white Greiner 1536 well low volume plates (Greiner Bio-One, UK), in a total reaction volume of 3 μL and 1% (v/v) final DMSO concentration. Enzymes and substrates were added separately to the compound plates and incubated at room temperature. The kinase reaction was then quenched by the addition of 3 μL of stop buffer. Stopped assay plates were read using a BMG Pherastar. IC50 values were calculated using a Genedata Screener® software (Genedata, Inc., Basel, Switzerland).
Full length human DNAPK protein was purified from HeLa cell extract by ion exchange. Initially DNAPK protein was incubated with compound for 30 minutes at room temperature in reaction buffer (50 mM Hepes pH 7.5, 0.01% Brij-35, 10 mM MgCl2, 1 mM EGTA, 1 mM DTT, […] Calf Thymus DNA). The reaction was then initiated by the addition of ATP and fluorescently tagged peptide substrate (Fluorescein-[…], Thermo Fisher Scientific). […] The reaction was incubated for a further hour and the plates were read on a BMG Pherastar.
Data was analysed and IC50 values were calculated using Genedata Screener® software (Genedata, Inc., Basel, Switzerland).

Chain of TTK (P33981 whole entry): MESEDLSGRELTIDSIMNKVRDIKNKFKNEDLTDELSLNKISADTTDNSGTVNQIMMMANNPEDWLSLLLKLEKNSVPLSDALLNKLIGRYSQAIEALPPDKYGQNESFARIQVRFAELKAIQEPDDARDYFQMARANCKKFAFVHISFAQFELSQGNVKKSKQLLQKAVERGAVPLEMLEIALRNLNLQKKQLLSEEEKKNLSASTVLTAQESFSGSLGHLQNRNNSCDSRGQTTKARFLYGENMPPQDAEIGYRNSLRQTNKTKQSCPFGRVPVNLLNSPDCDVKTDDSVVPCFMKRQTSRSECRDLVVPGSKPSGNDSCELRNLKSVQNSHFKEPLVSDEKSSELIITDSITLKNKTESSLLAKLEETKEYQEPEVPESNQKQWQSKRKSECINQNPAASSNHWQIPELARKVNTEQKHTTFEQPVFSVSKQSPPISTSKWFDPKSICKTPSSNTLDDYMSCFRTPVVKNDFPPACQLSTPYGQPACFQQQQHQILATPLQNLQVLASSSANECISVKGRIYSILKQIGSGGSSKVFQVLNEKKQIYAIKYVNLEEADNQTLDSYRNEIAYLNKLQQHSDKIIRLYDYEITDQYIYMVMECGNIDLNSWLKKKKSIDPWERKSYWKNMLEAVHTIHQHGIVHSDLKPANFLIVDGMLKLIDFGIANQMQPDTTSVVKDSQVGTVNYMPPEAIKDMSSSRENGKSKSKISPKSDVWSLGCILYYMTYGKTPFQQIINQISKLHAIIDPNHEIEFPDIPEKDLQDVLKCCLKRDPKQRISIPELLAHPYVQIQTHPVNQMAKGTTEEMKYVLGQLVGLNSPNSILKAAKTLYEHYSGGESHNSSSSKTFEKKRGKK

| SMILES | TTK enz pIC50 (TTK) | JAK1 enz pIC50 (JAK1) | DNA-PK enz pIC50 [1] | IC50 (TTK; read-out: TTK enz pIC50 (converted)) [µM] | IC50 (JAK1; read-out: JAK1 enz pIC50 (converted)) [µM] | IC50 ([1]; read-out: DNA-PK enz pIC50 (converted)) [µM] |
| --- | --- | --- | --- | --- | --- | --- |
| CC(=O)N1CCC(n2c(=O)n(C)c3cnc(Nc4cc5cccnc5cc4C)nc32)CC1 [Example 51, 9-(1-acetylpiperidin-4-yl)-7-methyl-2-((7-methylquinolin-6-yl)amino)-7,9-dihydro-8H-purin-8-one] | 6.4 | <5 | >10 |  |  |  |
| CC(=O)N1CCC(n2c(=O)n(C)c3cnc(Nc4cc5cncnc5cc4C)nc32)CC1 [Example 3, 9-(1-acetylpiperidin-4-yl)-7-methyl-2-((7-methylquinazolin-6-yl)amino)-7,9-dihydro-8H-purin-8-one] | 5.4 | <5 | >10 |  |  |  |
| Cc1cc2nccnc2cc1Nc1ncc2c(n1)n([C@@H]1CCCOC1)c(=O)n2C [Example 26, (R)-7-methyl-2-((7-methylquinoxalin-6-yl)amino)-9-(tetrahydro-2H-pyran-3-yl)-7,9-dihydro-8H-purin-8-one] | 5.8 | <5 | 9.8 |  |  |  |
| Cc1cc2ncccc2cc1Nc1ncc2c(n1)n(C1CCS(=O)(=O)CC1)c(=O)n2C [Example 35, 9-(1,1-dioxidotetrahydro-2H-thiopyran-4-yl)-7-methyl-2-((7-methylquinolin-6-yl)amino)-7,9-dihydro-8H-purin-8-one] | 5.9 | <5 | >10 |  |  |  |
| Cc1cnc2cc(C)c(Nc3ncc4c(n3)n(C3CCOCC3)c(=O)n4C)cc2n1 [Example 34, 2-((3,7-dimethylquinoxalin-6-yl)amino)-7-methyl-9-(tetrahydro-2H-pyran-4-yl)-7,9-dihydro-8H-purin-8-one] |  |  |  | 5.01 | > 10 | < 0.0001 |
| Cc1cc2nnccc2cc1Nc1ncc2c(n1)n([C@H]1CCOC1)c(=O)n2C [Example 21, (S)-7-methyl-2-((7-methylcinnolin-6-yl)amino)-9-(tetrahydrofuran-3-yl)-7,9-dihydro-8H-purin-8-one] | 6.4 | <5 | >10 |  |  |  |
| Cc1cc2nccnc2cc1Nc1ncc2c(n1)n([C@@H]1CCOC1)c(=O)n2C [Example 24, (R)-7-methyl-2-((7-methylquinoxalin-6-yl)amino)-9-(tetrahydrofuran-3-yl)-7,9-dihydro-8H-purin-8-one] | 5.6 | <5 | 9.1 |  |  |  |
| Cc1cc2ncccc2cc1Nc1ncc2c(n1)n([C@@H]1CCN(C)C[C@@H]1F)c(=O)n2C [Example 46, 9-((3S,4R)-3-fluoro-1-methylpiperidin-4-yl)-7-methyl-2-((7-methylquinolin-6-yl)amino)-7,9-dihydro-8H-purin-8-one] | 5.4 | <5 | 8.1 |  |  |  |
| CCN1CCC(n2c(=O)n(C)c3cnc(Nc4cc5cccnc5cc4C)nc32)CC1 [Example 50, 9-(1-ethylpiperidin-4-yl)-7-methyl-2-((7-methylquinolin-6-yl)amino)-7,9-dihydro-8H-purin-8-one] | 5.2 | <5 | 8.4 |  |  |  |
| Cc1cc2nccnc2cc1Nc1ncc2c(n1)n([C@]1(C)CC[C@H](O)CC1)c(=O)n2C [Example 20, 9-((1s,4s)-4-hydroxy-1-methylcyclohexyl)-7-methyl-2-((7-methylquinoxalin-6-yl)amino)-7,9-dihydro-8H-purin-8-one] | 6.4 | <5 | 10.0 |  |  |  |
| Cc1cc2ncccc2cc1Nc1ncc2c(n1)n([C@@H]1CCNC[C@@H]1F)c(=O)n2C [Example 38, 9-((3S,4R)-3-fluoropiperidin-4-yl)-7-methyl-2-((7-methylquinolin-6-yl)amino)-7,9-dihydro-8H-purin-8-one] | <5.1 | <5 | 8.0 |  |  |  |

— patent publication US11884671B2, “Purinone compounds and their use in treating cancer” (ASTRAZENECA AB, priority 2018, dated 2024)
